From patent US9770397B2, “Oxidative dyeing composition” (KAO GERMANY GMBH, priority 2012, dated 2017) come the findings set out here.

The subject of the series is scalp. The experiment in a line: monadic use test for scalp compatibility and mildness. More on the design: species or system consumers. Particulars: in vivo. The procedure: The above compositions were tested in a monadic use test for scalp compatibility and mildness. Both compositions were used to dye hair of 30 consumers each having shoulder length hair. The composition was mixed with a composition comprising 6% hydrogen peroxide at a weight ratio of 1 to 1 and applied onto hair and processed for 30 min at a temperature of 40° C. and rinsed off. It was observed that both composition colour hair in the same way to the same colour direction. The following observations were made on scalp irritation.

Structures are written as SMILES.

As for `O=C(CCc1ccc(O)cc1)Nc1ccccc1C(=O)O` [hydroxyphenyl propamidobenzoic acid, Hydroxyphenyl propamidobenzoic acid], the “mildness and scalp compatibility of hair dyeing composition (conclusion in words)” value is “improved mildness of hair dyeing composition and improved scalp compatibility”.
